Values after ≈ are worked out from the molar mass of the structure shown. Peptide text beside a SMILES is read from it.
Legend:
[1] = test system: canine erythrocytes; assay: in vitro; type: cell-based, dog; conditions: for IC10 haemolysis: canine erythrocytes; for IC50: red cells of canine
Protocol: (§1) The haemolytic activity of the 24 structurally related peptides (Table 1) was evaluated in erythrocytes from four different species (human, canine, bovine and rat) employing standard methodology. The subsequent release of haemoglobin was used to assess haemolytic activity as function of peptide and peptidomimetic concentration, with concentrations ranging from 0.15 to 150 µM (Presented in whole in Supplementary information Table S1–S4).
(§2) Human and rat (Sprague–Dawley) blood samples were purchased by Bioreclamation IVT (Westbury, NY, USA), collected in tubes containing heparin as anticoagulant and stored at 4 °C before use. Dog and bovine whole blood was collected from in-house animals at Zoetis Animal Health, Kalamazoo, Michigan and stored at 4 °C in tubes containing heparin as anticoagulant. 10 mL of each whole blood sample were centrifuged at 1,500 × g for 5 min and the resulting plasma fraction was removed from the samples. The pellets were washed with an equal volume (10 mL) of saline, mixing by inversion. The centrifuging and washing steps were repeated 5 times. After the last washing step, a volume of PBS was added, and the resulting samples were diluted 1:10 with PBS to yield an RBC concentration of ~ 5 × 10^8 RBC/mL. The assay was performed in a 384-well polypropylene microplate (Greiner 784201, Greiner Bio-One International, GMBH) through a Bravo Liquid Handling Platform 384 system (Agilent Technologies, Santa Clara, CA, USA) according to the previously published procedures. The compounds were tested in serial 1:1 dilutions in PBS, with final concentrations ranging from 150 to 1.2 µM. Melittin was used as reference lytic peptide. 1% TritonX100 and PBS were used as positive and negative (diluent) controls, respectively. The final concentrations were obtained by adding to the wells 7 µL of each solution, melittin or PBS, followed by 63 µL of RBCs to each well. The plate was sealed, shaken on a plate shaker for 20 s, incubated for one hour at 37 °C. Finally, it was centrifuged at 1,500 × g for 5 min at room temperature. 60 µL of supernatants were removed from all plate wells via a Bravo 384 robot and transferred to a flat-bottomed 384-well plate (Greiner UV-Star #7810801, Greiner Bio-One International, GMBH). The plate was centrifuged at 1,000 g for 1 min to remove air bubbles and optical density was measured at 405 nm using a plate reader. Percentage of haemolysis was calculated with the following equation: %haemolysis=(absorbance of test sample)-absorbance of diluent/absorbance of positive control-absorbance of diluent×100.

[2] = in vitro; type: cell-based, dog; conditions: dog
Protocol: as §1, §2

[3] = in vitro; type: cell-based, rat (Sprague–Dawley); conditions: Sprague-Dawley, rat
Protocol: as §1, §2

[4] = test system: rat erythrocytes; assay: in vitro; type: cell-based, rat (Sprague–Dawley); conditions: for IC10 haemolysis: rat erythrocytes; for IC50: red cells of rat
Protocol: as §1, §2

[5] = test system: HaCaT cells; type: cell-based, human; conditions: 1 h
Protocol: (§3) An immortalised human keratinocyte (HaCaT) cell line (Gift from David Gram Naym at Bispebjerg Hospital, Denmark), a human liver cancer cell line (HepG2; ATCC HB-8065) and a human epithelial cervical cancer cell line (HeLa; ATCC CCL-2) were cultured to ∼90% confluence after 21–25 h of growth under standard conditions (5% CO2 at 37 °C). Cells were cultured in Dulbecco’s Modified Eagle’s Medium supplemented with 10% (v/v) fetal bovine serum (FBS). All culture media were supplemented with penicillin (100 IU/mL) and streptomycin (100 μg/mL). All cell media and supplements were obtained from Sigma-Aldrich (St. Louis, MO, United States). The 96-well plates were supplied by Corning Costar (Sigma-Aldrich, Brøndby, Denmark). Cell viability assessment was performed on cell monolayers grown to ∼90% confluence in 96-well plates by using the MTS/PMS assay as previously described. Briefly, the adhered cells were washed with PBS solution (37 °C) (ThermoFisher Scientific, Roskilde) and exposed for 1 h at 37 °C to 100 μL of peptides dissolved in the medium also used for culturing of the cell line (at concentrations in the range 0–1,000 μg/mL). The cells were subsequently washed twice with 37 °C PBS and then 100 μL of an MTS/PMS solution in media, consisting of 240 μg/mL MTS (Promega, Madison, WI, United States) and 2.4 mg/mL PMS (Promega, Madison, WI, United States), was added to the cells, which then were incubated for 1 h at 37 °C protected from light. A plate reader (SpectraMax i3X; Molecular devices, San Jose, CA) was used to measure the absorbance at 492 nm. The relative viability was calculated by using 0.2% (w/v) sodium dodecyl sulfate (SDS) as the positive control, while cells exposed to medium without test compound were used as the negative control.

[6] = test system: HeLa cells; type: cell-based, human; conditions: 1 h
Protocol: as §3

[7] = test system: Staphylococcus pseudintermedius; conditions: cited from earlier work
[8] = in vitro; type: cell-based, bovine; conditions: bovine
Protocol: as §1, §2

[9] = test system: bovine erythrocytes; assay: in vitro; type: cell-based; conditions: bovine erythrocytes
Protocol: as §1, §2

[10] = in vitro; type: cell-based, human; conditions: human
Protocol: as §1, §2

[11] = test system: human erythrocytes; assay: in vitro; type: cell-based; conditions: for IC10 haemolysis: human erythrocytes; for IC50: red cells of human
Protocol: as §1, §2

[12] = test system: Staphylococcus aureus; set-up: method as in PMID 30842436; conditions: cited from earlier work
[13] = test system: Pseudomonas aeruginosa; set-up: method as in PMID 30842436; conditions: cited from earlier work
[14] = test system: human erythrocytes; conditions: cited from earlier work

Compound | IC10 haemolysis [1] [µM] | IC50 [1] [µM] | hemolysis at 1 h, 150 µM [2] [%] | hemolysis at 1 h, 150 µM [3] [%] | IC10 haemolysis [4] [µM] | IC50 [4] [µM] | IC50 [5] [µM] | IC50 [6] [µM] | S.p. MIC ([7]; Staphylococcus pseudintermedius, Table S5, in µM) [µM] | MIC against Staphylococcus pseudintermedius [7] [mg/L] | hemolysis at 1 h, 150 µM [8] [%] | IC10 haemolysis [9] [µM] | hemolysis at 1 h, 150 µM [10] [%] | IC10 haemolysis [11] [µM] | IC50 [11] [µM] | MIC against Staphylococcus aureus [12] [mg/L] | MIC against Pseudomonas aeruginosa [13] [mg/L] | Previously reported haemolytic activity against human erythrocytes (in words) [14]
CC(C)C[C@H](NC(=O)[C@H](CCCCN)NC(=O)[C@@H](N)CCCCN)C(=O)N[C@@H](CCCCN)C(=O)N[C@@H](Cc1ccc2ccccc2c1)C(=O)N[C@@H](Cc1ccccc1)C(=O)N[C@@H](Cc1ccc2ccccc2c1)C(N)=O [Compound 1, Lys-Lys-Leu-Lys-(2-Nal)Ala-Phe-(2-Nal-)Ala] (HELM PEPTIDE1{K.K.L.K.[O=C([C@H](Cc1ccc2ccccc2c1)N[*:1])[*:2]].F.[O=C([C@H](Cc1ccc2ccccc2c1)N[*:1])[*:2]].[am]}$$$$V2.0) | 34.2 | > 150 | 19.7 | < 8 | > 150 | > 150 | 654 | 462 | 7.6 | 8 (≈ 7.57 µM) | 32.5 | 45.1 | < 8 | > 150 | > 150 | 16 (≈ 15.1 µM) | 32 (≈ 30.3 µM) | –
CC(C)C[C@H](NC(=O)[C@H](CCCCN)NC(=O)[C@@H](N)CCCCN)C(=O)N[C@@H](CCCCN)C(=O)N[C@@H](Cc1cccc2ccccc12)C(=O)N[C@@H](Cc1ccccc1)C(=O)N[C@@H](Cc1cccc2ccccc12)C(N)=O [Compound 6, Lys-Lys-Leu-Lys-(1-Nal)Ala-Phe-(1-Nal)Ala] (HELM PEPTIDE1{K.K.L.K.[O=C([C@H](Cc1cccc2ccccc12)N[*:1])[*:2]].F.[O=C([C@H](Cc1cccc2ccccc12)N[*:1])[*:2]].[am]}$$$$V2.0; N-terminus assumed) | 12.2 | 37 | 101 | 18.2 | 120.5 | > 150 | – | – | – | 8 (≈ 7.57 µM) | 39.9 | 23.6 | 42.7 | 55.6 | > 150 | 32 (≈ 30.3 µM) | 8 (≈ 7.57 µM) | high in vitro haemolytic activity
CC(C)C[C@@H](NC(=O)[C@@H](Cc1cccc2ccccc12)NC(=O)[C@@H](Cc1ccccc1)NC(=O)[C@H](N)Cc1cccc2ccccc12)C(=O)N[C@@H](CCCCN)C(=O)N[C@@H](CCCCN)C(=O)N[C@@H](CCCCN)C(N)=O [Compound 9, (1-Nal)Ala-Phe-(1-Nal)Ala-Leu-Lys-Lys-Lys] (HELM PEPTIDE1{[N[C@H](Cc1cccc2ccccc12)C(=O)[*:2]].[dF].[O=C([C@@H](Cc1cccc2ccccc12)N[*:1])[*:2]].[dL].K.K.K.[am]}$$$$V2.0) | 65.0 | > 150 | 25.5 | < 8 | > 150 | > 150 | – | – | – | 16 (≈ 15.1 µM) | < 8 | – | 30.8 | 104.1 | > 150 | 32 (≈ 30.3 µM) | 32 (≈ 30.3 µM) | no haemolytic activity
